Experimental data published in US8258296B2, “Crystalline antifungal compounds” (Palau Pharma, S.A., priority 2006, dated 2012).

Assays:
Format in all cases: physicochemical
[1] = Storage stability, detection of degradation products
Excerpt: (§1) Accordingly, the present subject matter relates to methods of identifying, obtaining, and purifying the various crystalline forms of (1R,2R)-7-chloro-3-[2-(2,4-difluorophenyl)-2-hydroxy-1-methyl-3-(1H-1,2,4-triazol-1-yl)propyl]quinazolin-4(3H)-one. These crystalline forms, namely Forms I-VI, were identified as six distinct crystal forms. Certain physical characteristics of these crystalline forms generated during crystallization studies, are as follows: • Form I: typically obtained by crystallizing the amorphous form using supercritical CO2 crystallization conditions. […] Diethyl ether can then be optionally added. […] Form V can best be characterized as a crystalline phase containing between about 2 and about 7% by weight of ethyl acetate and about 0.5 to about 2.5% by weight of hexane. • Form VI: typically obtained by slurrying (1R,2R)-7-chloro-3-[2-(2,4-difluorophenyl)-2-hydroxy-1-methyl-3-(1H-1,2,4-triazol-1-yl)propyl]quinazolin-4(3H)-one in aqueous ethanol or by slowly cooling a saturated aqueous ethanol solution that was seeded. This form may be obtained when the slurry comprises any other Form of (1R,2R)-7-chloro-3-[2-(2,4-difluorophenyl)-2-hydroxy-1-methyl-3-(1H-1,2,4-triazol-1-yl)propyl]quinazolin-4(3H)-one, such as, for example, the amorphous form, Form III, Form IV, Form V, or combinations thereof. […]

[2] = Solid-form conversion on extended storage; conditions: storage for 3 months at 40° C. and 75% RH
Excerpt: as §1

[3] = Slurry experiment to estimate rate of conversion of Form III to Form VI (XRPD); conditions: slurry at 45° C. in ethanol-water (1:9), seeded with Form VI, XRPD analysis
Protocol: Form VI may be prepared by slurrying albaconazole in aqueous ethanol or by slowly cooling a saturated aqueous ethanol solution that was seeded. In order to estimate rate of conversion, a slurry experiment of Form III was setup at 45° C. in ethanol-water (1:9), seeded with Form VI and aliquots periodically removed. Solids from the first aliquot removed after ˜3 hours were composed of only Form VI by XRPD analysis. A slow cool method was also attempted by cooling a saturated solution of albaconazole in aqueous ethanol that was seeded. Form VI solids were isolated in a 41% yield.

[4] = Hygroscopicity characterisation

Row | Compound | degradation products detected after storage ([1]; 6 months of storage at 25° C./60% RH) | degradation products detected after storage ([1]; 6 months of storage at 30° C./65% RH) | conversion of the original form to Form IV on storage [2] | time to complete conversion of slurry to Form VI [3] [h] | hygroscopicity [4]
1 | C[C@@H](n1cnc2cc(Cl)ccc2c1=O)[C@](O)(Cn1cncn1)c1ccc(F)cc1F [Form III, (1R,2R)-7-chloro-3-[2-(2,4-difluorophenyl)-2-hydroxy-1-methyl-3-(1H-1,2,4-triazol-1-yl)propyl]quinazolin-4(3H)-one] | No degradation products | No degradation products | some but not all of the original form converts to Form IV | ~3 | 
2 | C[C@@H](n1cnc2cc(Cl)ccc2c1=O)[C@](O)(Cn1cncn1)c1ccc(F)cc1F [Form VI, (1R,2R)-7-chloro-3-[2-(2,4-difluorophenyl)-2-hydroxy-1-methyl-3-(1H-1,2,4-triazol-1-yl)propyl]quinazolin-4(3H)-one] |  |  |  |  | non-hygroscopic
